According to PubChem BioAssay AID1963831 (Molecular Pharmacology Branch, DTP, NCI, 2024):

Test system: 889142-216-R-J1-PDC complex spheroid viability
Test: Anticancer human tumor 889142-216-R-J1-PDC patient-derived bladder carcinoma cell line growth inhibition [POLQ]
Conditions: for IC50: curve of first compound; for viability, T/C: stronger effect = lower value
Summary of the method: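 Three-cell-type spheroids modelling solid tumor plus stroma served as the readout system; POL inhibitors were tested individually and in combination, concentration ranges set by clinical Cmax where known.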

[1] = second compound 0.0316 µM, first compound 0.00316 µM
[2] = second compound 0.0316 µM, first compound 0.01 µM
[3] = second compound 0.0316 µM, first compound 0.0316 µM
[4] = second compound 0.0316 µM, first compound 0.1 µM
[5] = second compound 0.1 µM, first compound 0.00316 µM
[6] = second compound 0.1 µM, first compound 0.01 µM
[7] = second compound 0.1 µM, first compound 0.0316 µM
[8] = second compound 0.1 µM, first compound 0.1 µM
[9] = second compound 0.316 µM, first compound 0.00316 µM
[10] = second compound 0.316 µM, first compound 0.01 µM
[11] = second compound 0.316 µM, first compound 0.0316 µM
[12] = second compound 0.316 µM, first compound 0.1 µM
[13] = second compound 1 µM, first compound 0.00316 µM
[14] = second compound 1 µM, first compound 0.01 µM
[15] = second compound 1 µM, first compound 0.0316 µM
[16] = second compound 1 µM, first compound 0.1 µM
[17] = second compound 3.16 µM, first compound 0.00316 µM
[18] = second compound 3.16 µM, first compound 0.01 µM
[19] = second compound 3.16 µM, first compound 0.0316 µM
[20] = second compound 3.16 µM, first compound 0.1 µM
[21] = second compound 10 µM, first compound 0.00316 µM
[22] = second compound 10 µM, first compound 0.01 µM
[23] = second compound 10 µM, first compound 0.0316 µM
[24] = second compound 10 µM, first compound 0.1 µM
[25] = second compound 0.0316 µM, first compound 0.316 µM
[26] = second compound 0.0316 µM, first compound 1 µM
[27] = second compound 0.1 µM, first compound 0.316 µM
[28] = second compound 0.1 µM, first compound 1 µM
[29] = second compound 0.316 µM, first compound 0.316 µM
[30] = second compound 0.316 µM, first compound 1 µM
[31] = second compound 1 µM, first compound 0.316 µM
[32] = second compound 1 µM, first compound 1 µM
[33] = second compound 3.16 µM, first compound 0.316 µM
[34] = second compound 3.16 µM, first compound 1 µM
[35] = second compound 10 µM, first compound 0.316 µM
[36] = second compound 10 µM, first compound 1 µM
[37] = second compound 0.0316 µM, first compound 3.16 µM
[38] = second compound 0.0316 µM, first compound 10 µM
[39] = second compound 0.1 µM, first compound 3.16 µM
[40] = second compound 0.1 µM, first compound 10 µM
[41] = second compound 0.316 µM, first compound 3.16 µM
[42] = second compound 0.316 µM, first compound 10 µM
[43] = second compound 1 µM, first compound 3.16 µM
[44] = second compound 1 µM, first compound 10 µM
[45] = second compound 3.16 µM, first compound 3.16 µM
[46] = second compound 3.16 µM, first compound 10 µM
[47] = second compound 10 µM, first compound 3.16 µM
[48] = second compound 10 µM, first compound 10 µM
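Further: spheroids exposed to compounds for seven days.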
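Wherever viability, T/C is given: 100% = DMSO vehicle control viability.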

SMILES: CC[C@@]1(O)C(=O)OCc2c1cc1n(c2=O)Cc2cc3c(CN(C)C)c(O)ccc3nc2-1 + Nc1ccc(C#CCN(C(=O)Cc2ncc(C(F)(F)F)cc2C(F)(F)F)c2ccc(F)cc2)nn1
- IC50 (second compound 0.0316 µM): > 100 nM
- IC50 (second compound 0.1 µM): > 100 nM
- IC50 (second compound 0.316 µM): > 100 nM
- IC50 (second compound 1 µM): > 100 nM
- IC50 (second compound 3.16 µM): > 100 nM
- IC50 (second compound 10 µM): > 100 nM
- viability, T/C (second compound 0.0316 µM, first compound 0.000316 µM): 101%
- viability, T/C (second compound 0.0316 µM, first compound 0.001 µM): 78.3%
- viability, T/C [1]: 95.8%
- viability, T/C [2]: 87.9%
- viability, T/C [3]: 67.5%
- viability, T/C [4]: 56.1%
- viability, T/C (second compound 0.1 µM, first compound 0.000316 µM): 99.4%
- viability, T/C (second compound 0.1 µM, first compound 0.001 µM): 89.4%
- viability, T/C [5]: 91.3%
- viability, T/C [6]: 75.2%
- viability, T/C [7]: 59.7%
- viability, T/C [8]: 52.4%
- viability, T/C (second compound 0.316 µM, first compound 0.000316 µM): 86.8%
- viability, T/C (second compound 0.316 µM, first compound 0.001 µM): 77.6%
- viability, T/C [9]: 116%
- viability, T/C [10]: 94.8%
- viability, T/C [11]: 54.7%
- viability, T/C [12]: 59.2%
- viability, T/C (second compound 1 µM, first compound 0.000316 µM): 86.9%
- viability, T/C (second compound 1 µM, first compound 0.001 µM): 67.1%
- viability, T/C [13]: 109%
- viability, T/C [14]: 70.7%
- viability, T/C [15]: 63.1%
- viability, T/C [16]: 55.9%
- viability, T/C (second compound 3.16 µM, first compound 0.000316 µM): 87.1%
- viability, T/C (second compound 3.16 µM, first compound 0.001 µM): 74.4%
- viability, T/C [17]: 109%
- viability, T/C [18]: 89.4%
- viability, T/C [19]: 57.4%
- viability, T/C [20]: 52.6%
- viability, T/C (second compound 10 µM, first compound 0.000316 µM): 121%
- viability, T/C (second compound 10 µM, first compound 0.001 µM): 135%
- viability, T/C [21]: 86.2%
- viability, T/C [22]: 72.6%
- viability, T/C [23]: 70.5%
- viability, T/C [24]: 53.4%

SMILES: CCc1c2c(nc3ccc(O)cc13)-c1cc3c(c(=O)n1C2)COC(=O)[C@]3(O)CC + Nc1ccc(C#CCN(C(=O)Cc2ncc(C(F)(F)F)cc2C(F)(F)F)c2ccc(F)cc2)nn1
- IC50 (second compound 0.0316 µM): 19.5 nM
- IC50 (second compound 0.1 µM): 16 nM
- IC50 (second compound 0.316 µM): 13.3 nM
- IC50 (second compound 1 µM): 12.6 nM
- IC50 (second compound 3.16 µM): 22.4 nM
- IC50 (second compound 10 µM): 11.7 nM
- viability, T/C [1]: 63.1%
- viability, T/C [2]: 61.6%
- viability, T/C [3]: 41.2%
- viability, T/C [4]: 32.9%
- viability, T/C [25]: 25.2%
- viability, T/C [26]: 9.02%
- viability, T/C [5]: 61.2%
- viability, T/C [6]: 51.1%
- viability, T/C [7]: 44.6%
- viability, T/C [8]: 34.8%
- viability, T/C [27]: 30.4%
- viability, T/C [28]: 8.83%
- viability, T/C [9]: 66.6%
- viability, T/C [10]: 50%
- viability, T/C [11]: 38.6%
- viability, T/C [12]: 34%
- viability, T/C [29]: 23.9%
- viability, T/C [30]: 11.5%
- viability, T/C [13]: 70%
- viability, T/C [14]: 46.6%
- viability, T/C [15]: 41.3%
- viability, T/C [16]: 30.5%
- viability, T/C [31]: 23.4%
- viability, T/C [32]: 11.2%
- viability, T/C [17]: 59.3%
- viability, T/C [18]: 65.6%
- viability, T/C [19]: 39.4%
- viability, T/C [20]: 35.8%
- viability, T/C [33]: 30.9%
- viability, T/C [34]: 8.37%
- viability, T/C [21]: 57.4%
- viability, T/C [22]: 52.2%
- viability, T/C [23]: 41%
- viability, T/C [24]: 31.6%
- viability, T/C [35]: 28.3%
- viability, T/C [36]: 6.89%

SMILES: Nc1ccn(C2OC(CO)C(O)C2(F)F)c(=O)n1 (stereo not drawn) + Nc1ccc(C#CCN(C(=O)Cc2ncc(C(F)(F)F)cc2C(F)(F)F)c2ccc(F)cc2)nn1
- IC50 (second compound 0.0316 µM): 233 nM
- IC50 (second compound 0.1 µM): 386 nM
- IC50 (second compound 0.316 µM): 363 nM
- IC50 (second compound 1 µM): 292 nM
- IC50 (second compound 3.16 µM): 3390 nM
- IC50 (second compound 10 µM): 5260 nM
- viability, T/C [3]: 74.1%
- viability, T/C [4]: 56.1%
- viability, T/C [25]: 46%
- viability, T/C [26]: 45.2%
- viability, T/C [37]: 40.9%
- viability, T/C [38]: 35.9%
- viability, T/C [7]: 62.8%
- viability, T/C [8]: 57.8%
- viability, T/C [27]: 48.9%
- viability, T/C [28]: 47.2%
- viability, T/C [39]: 38.8%
- viability, T/C [40]: 34.5%
- viability, T/C [11]: 61.8%
- viability, T/C [12]: 56.1%
- viability, T/C [29]: 50.9%
- viability, T/C [30]: 44%
- viability, T/C [41]: 45.6%
- viability, T/C [42]: 39.6%
- viability, T/C [15]: 69.8%
- viability, T/C [16]: 55.6%
- viability, T/C [31]: 47%
- viability, T/C [32]: 48.5%
- viability, T/C [43]: 43.5%
- viability, T/C [44]: 36.7%
- viability, T/C [19]: 56.4%
- viability, T/C [20]: 60.7%
- viability, T/C [33]: 60%
- viability, T/C [34]: 55.7%
- viability, T/C [45]: 49.5%
- viability, T/C [46]: 39.7%
- viability, T/C [23]: 88.9%
- viability, T/C [24]: 73.6%
- viability, T/C [35]: 69.5%
- viability, T/C [36]: 51.7%
- viability, T/C [47]: 55.7%
- viability, T/C [48]: 46.5%

SMILES: O=c1[nH]cc(F)c(=O)[nH]1 + Nc1ccc(C#CCN(C(=O)Cc2ncc(C(F)(F)F)cc2C(F)(F)F)c2ccc(F)cc2)nn1
- IC50 (second compound 0.0316 µM): > 10000 nM
- IC50 (second compound 0.1 µM): > 10000 nM
- IC50 (second compound 0.316 µM): > 10000 nM
- IC50 (second compound 1 µM): > 10000 nM
- IC50 (second compound 3.16 µM): > 10000 nM
- IC50 (second compound 10 µM): > 10000 nM
- viability, T/C [3]: 91.6%
- viability, T/C [4]: 86.2%
- viability, T/C [25]: 90%
- viability, T/C [26]: 80%
- viability, T/C [37]: 81.1%
- viability, T/C [38]: 60.7%
- viability, T/C [7]: 91.1%
- viability, T/C [8]: 78.8%
- viability, T/C [27]: 58.8%
- viability, T/C [28]: 75.1%
- viability, T/C [39]: 67.1%
- viability, T/C [40]: 69.1%
- viability, T/C [11]: 108%
- viability, T/C [12]: 73.9%
- viability, T/C [29]: 68%
- viability, T/C [30]: 82.7%
- viability, T/C [41]: 68.3%
- viability, T/C [42]: 61.7%
- viability, T/C [15]: 83.4%
- viability, T/C [16]: 101%
- viability, T/C [31]: 79.8%
- viability, T/C [32]: 66.6%
- viability, T/C [43]: 61.9%
- viability, T/C [44]: 60.1%
- viability, T/C [19]: 82.7%
- viability, T/C [20]: 89.2%
- viability, T/C [33]: 83.3%
- viability, T/C [34]: 67.4%
- viability, T/C [45]: 72.4%
- viability, T/C [46]: 73.8%
- viability, T/C [23]: 109%
- viability, T/C [24]: 103%
- viability, T/C [35]: 83.2%
- viability, T/C [36]: 78.4%
- viability, T/C [47]: 68.6%
- viability, T/C [48]: 67.2%
